Data: patent US11795510B2, “Identification of epigenomic reprogramming in cancer and uses thereof” (The Johns Hopkins University, priority 2016, dated 2023)
“Also recorded” adds a separate entry of the source.

Experiments:
Assay type in all cases: cell-based, human
[1] = system: global chromatin modifications (H3K9Me2/3, acetylation) in distant metastatic subclones (A38Lg); assay: Western blots of histone modifications, distant metastatic subclones
Protocol: (§1) Histones were acid extracted as described and western blots performed on 3.5 ug histones, which were checked by Ponceau stains prior to western blot to ensure equal loading. Densitometry was performed with ImageJ software. RNA was extracted with Trizol reagent (Life Technologies) and isopropanol precipitated. Genomic DNA was purified with MasterPure DNA extraction reagents (Epicenter). Immunohistochemistry, H&E staining, and immunofluorescence on formalin-fixed, paraffin-embedded (FFPE) tissue microarray sections (TMAs) were performed according to standard procedures.
(§2) RNAi experiments were performed with siRNA transfections (Oligofectamine, Life Technologies) using negative control siRNA (Sigma, SIC001) and pre-designed siRNA oligonucleotides against indicated genes in parallel (Sigma, PGD: SASI_Hs02 00334150, CDH2: SASI_Hs01_00153995, TOP2B: SASI_Hs02_00311874). siRNAs against mutant KRAS^G12V (CUACGCCAACAGCUCCAAC) (SEQ ID NO:1) were custom designed. Cells were incubated with siRNAs for 4 days after transfection and harvested. For drug treatments in 2-D, cells were grown to 70-80% confluency and treated for 3 days with 250 uM 6AN or DMSO negative control.

[2] = system: global chromatin modifications in peritoneal subclone (A38Per), normal cells (HPDE, fibroblast) and local-regional PDACs; assay: Western blots of histone modifications, peritoneal subclone, normal cells and local-regional PDACs
Protocol: as §1, §2

[3] = system: distant metastatic and precursor subclones; assay: YSI metabolite analysis (glucose/glutamine consumption, lactate/glutamate secretion)
Protocol: (§3) Tissue samples and cell lines were previously collected from PDAC patients by rapid autopsy, sequenced-validated, and monitored for mycoplasma as previously described. Low passage (2-17) rapid autopsy cell lines were cultured at 37° C. in DMEM with 10% fetal bovine serum (FBS, Gibco). For MTT assays, 15,000 cells/well were plated into 96 well plates in triplicate, treated 12 hours later, and assayed after 24 hr (glucose responses) or 6 days (chemotherapy) with CellTiter96 (Promega). For glucose response assays, nutrient-deplete DMEM (no glucose, glutamine, pyruvate, or serum) was used with addition of glucose as indicated. […] Cells were then washed with PBS, trypsinized, and viable cells counted with a hemocytometer. Glucose uptake and lactate secretion were measured with a YSI 7100 Bioanalyzer as described in the supplementary methods. […]
YSI metabolite analysis. Metabolite consumption (glucose and glutamine) and production (lactate and glutamate) were measured using a YSI 7100 Bioanalyzer. […] At day 0 cells were counted (3 wells) or cultured in either regular medium or medium supplemented with the indicated compound. […] The area under the curve (AUC) was calculated as N(T)d/ln2([…]), where N(T) is the final cell count, d is doubling time, and T is time of experiment. […]

[4] = system: glucose incorporation into lactate and nucleotides (PPP); assay: 13C-1,2 glucose tracing by LC-HRMS; settings: 10 mM 13C-1,2 glucose, 36 hours
Protocol: as §3
LC-HRMS Metabolite Profiling. LC-HRMS samples were prepared and analyzed as described in Liu et al. (Development and quantitative evaluation of a high-resolution metabolomics technology. Anal Chem 86, 2175-84 (2014)). […] Additional replicates were also included and counted at the end of the experiment for normalization. […] Pellets were reconstituted into a volume normalized to protein content (15 uL of 1:1 acetonitrile:methanol and 15 uL of water was used per 1 mg protein) and analyzed by LC-QE-MS. […]

[5] = system: distant metastatic and primary tumor precursor subclones; assay: 3-D matrigel tumor forming assay, distant metastatic subclones
Protocol: as §2
3-D matrigel assays were adapted from Cheung et al. (Control of alveolar differentiation by the lineage transcription factors GATA6 and HOPX inhibits lung adenocarcinoma metastasis. Cancer Cell 23, 725-38 (2013)). […] Well-formed tumors were then counted and representative photographs taken with an EVOS instrument. 3-D suspension tumorsphere assays were performed with 20,000 starting cells/well in ultra-low attachment 6 well plates as described, and tumors counted/photographed after at least 7 days of tumor growth.

[6] = system: distant metastatic subclones; assay: 3-D suspension tumorsphere assay, distant metastatic subclones
Protocol: 3-D matrigel assays were adapted from Cheung et al. (Control of alveolar differentiation by the lineage transcription factors GATA6 and HOPX inhibits lung adenocarcinoma metastasis. Cancer Cell 23, 725-38 (2013)). Briefly, 2-D cultures were trypsinized into single cells, 4,000cells/mL were suspended and thoroughly mixed in ice-cold DMEM containing 5% matrigel (BD systems) and 2% FBS (+/−DMSO/6AN as needed), 500 ul plated in quadruplicate into 24 well ultra-low attachment plates, and incubated for at least 7 days to allow tumor growth. Well-formed tumors were then counted and representative photographs taken with an EVOS instrument. 3-D suspension tumorsphere assays were performed with 20,000 starting cells/well in ultra-low attachment 6 well plates as described, and tumors counted/photographed after at least 7 days of tumor growth.

NC(=O)c1ccc(N)nc1 [6AN, 6-aminonicotinamide] was tested, and the “persistence of chromatin changes upon removal of 6AN from the media” value ([1]; 3d treatment followed by removal for an additional 3d) was “persisted”, the “H3K27Me3 or H4K20Me3, western blot densitometry” value ([1]; across distant metastatic subclones) was “minimal or non-recurrent effects” and the “reprogrammed chromatin modifications (H3K9Me2, acetylation), western blot densitometry” value ([1]; across distant metastatic subclones, 250 uM, 3 days) was “quantitatively reversed; also recorded: selectively reversed”. For the same molecule, the “acetylation (western blot)” value ([1]; distant metastatic subclones) was “decreased”, the “global H3K9Me2 (western blot)” value ([1]; distant metastatic subclones) was “generally increased” and the “reprogrammed chromatin state (global H3K9Me2/3 and acetylation, western blots)” value ([1]; paired lung metastasis A38Lg) was “reversed the reprogrammed chromatin state”. For the same molecule, the “histone modifications, western blot densitometry” value ([2]; normal (HPDE, fibroblast) or local-regional PDAC samples) was “minimal effects; also recorded: did not show such changes”, the “effect on global chromatin modifications (western blots)” value ([2]; peritoneal subclone A38Per) was “no effect” and the “glutamine consumption or glutamate secretion” value [3] was “no effect”. The “rates of glucose consumption and lactate secretion” value [3] was “selectively slowed”, the “incorporation of labeled glucose into lactate and nucleotides (metabolites downstream of the PPP)” value [4] was “reversed the previously detected high incorporation; also recorded: reduced incorporation” and the “tumor formation in 3D matrigel assays” value [5] was “selectively and strongly blocked tumor formation; also recorded: ablated tumor formation”. The “tumor formation in 3-D suspension tumorsphere assays” value [6] was “selectively and strongly blocked tumor formation; also recorded: ablated tumor formation”.
